Measured values published in paper PMC9501014, “Amaryllidaceae-Type Alkaloids from Pancratium maritimum: Apoptosis-Inducing Effect and Cell Cycle Arrest on Triple-Negative Breast Cancer Cells” (Molecules, 2022).

Legend:
MDA-MB-231 cells [1] = test: Mitochondrial ROS generation (MitoSOX); assay type: cell-based, human; details: 16 µM, 24 h
Experimental: (§1) Figure 2 Compound 7 induced cell cycle arrest, apoptosis, and ROS production, in MDA-MB-231 cells. […] (B) Effect of 16 µM of compound 7 on cell cycle progression after 48 h of treatment in MDA-MB-231 cells; the percentage of cells in each phase of the cell cycle was analyzed by flow cytometry, using PI; data are mean ± SEM of three independent experiments. […] (C) Effect of 16 µM of compound 7 on apoptosis after 48 h of treatment; the percentage of Annexin-positive cells was analyzed by flow cytometry using PI and Annexin-V staining; data are mean ± SEM of three independent experiments. […] (F) The graph represents the quantification of protein expression levels relative to DMSO; data are mean ± SD of three independent experiments. The ability of compound 7 to induce apoptosis in this cell line was also assessed by cytometry, using the Annexin V-FITC assay after 48 h of treatment. […]
For mitochondrial ROS generation assessment, MDA-MB-231 cells were seeded in 6-well plates at a density of 1.5 × 10^5 cells/well for 24 h, followed by treatment with 16 µM of compound 7 for an additional 24 h. Thereafter, cells were incubated with 3 μM MitoSOX (Thermo Fisher Scientific, Invitrogen, Portugal) for 30 min at 37 °C and analyzed by flow cytometry.

MDA-MB-468 cells = test: Sulforhodamine B antiproliferative assay, MDA-MB-468; assay type: cell-based, human
Experimental: (§2) The antiproliferative effect of the isolated compounds (1–11) was investigated by the sulforhodamine B assay against human triple-negative breast cancer cell lines (MDA-MB-468 and MDA-MB-231) and breast ductal carcinoma cells (MCF-7) and the non-tumorigenic fibroblast (HFF-1) and breast cell lines (MCF12A). The IC50 values were determined after 48 h of treatment (Table 1).
(§3) Human breast adenocarcinoma MDA-MB-231, MDA-MB-468, and MCF-7 cell lines and non-tumorigenic foreskin fibroblast (HFF-1) and breast (MCF12A) cell lines were purchased from American Type Culture Collection (ATCC, Rockville, MD, USA). All cancer cell lines, except MCF12A, were routinely cultured in RPMI-1640 medium with glutamine from Corning (VWR, Carnaxide, Portugal) supplemented with 10% fetal bovine serum (FBS) from Biowest (Labclinics, Barcelona, Spain). MCF12A cells were cultured in a 1:1 mixture of Dulbecco’s modified Eagle’s medium and Ham’s F12 medium, 20 ng/mL human epidermal growth factor, 100 ng/mL cholera toxin, 0.01 mg/mL bovine insulin, and 500 ng/mL hydrocortisone and supplemented with 10% FBS. All cells were maintained in a humidified incubator at 37 °C with 5% CO2. All cells were routinely tested for mycoplasma contamination using the MycoAlertTM PLUS detection kit (Lonza, Basel, Switzerland).
(§4) Human cell lines were seeded in 96-well plates at a density of 5.0 × 10^3 (MDA-MB-231, MCF-7, HFF-1, and MCF12A) and 7.5 × 10^3 (MDA-MB-468) cells/well and allowed to adhere for 24 h. Cells were treated with serial dilutions of compounds (ranging from 0.1 to 40 μM) for an additional 48 h. Effect on cell proliferation was measured by sulforhodamine B assay, as described in [33], and the half-maximal inhibitory concentration (IC50) was then determined for each cell line using the GraphPad Prism software version 7.0 (La Jolla, CA, USA).

MDA-MB-231 cells [2] = test: Cell cycle analysis by flow cytometry (PI); assay type: cell-based, human; details: 16 µM (2 × IC50), vs vehicle control; 24 h / 48 h
Experimental: To explore the ability of compound 7 to regulate cell cycle progression, the percentage of cells in different phases was analyzed after 24 h of exposure.
as §1
The analyses were performed basically as described in [33]. […] The cells were then analyzed by flow cytometry, and cell cycle phases were identified and quantified using the FlowJo × 10.0.7 Software (Treestar, Ashland, OR, USA). […]

[3] = system: breast cancer cell lines (MDA-MB-231, MDA-MB-468, MCF-7); test: Sulforhodamine B assay, all breast cancer cell lines; assay type: cell-based; details: Homo sapiens; range over the four alkaloids and MDA-MB-231, MDA-MB-468, MCF-7; read-out: IC50 values against all breast cancer cell lines
Experimental: Aiming to find Amaryllidaceae alkaloids against breast cancer, including the highly aggressive triple-negative breast cancer, the phytochemical study of Pancratium maritimum was carried out. Several Amaryllidaceae-type alkaloids, bearing scaffolds of the haemanthamine-, homolycorine-, lycorine-, galanthamine-, and tazettine-type were isolated (3–11), along with one alkamide (2) and a phenolic compound (1). The antiproliferative effect of compounds (1–11) was evaluated by the sulforhodamine B assay against triple-negative breast cancer cell lines MDA-MB-231 and MDA-MB-468, breast cancer cells MCF-7, and the non-malignant fibroblast (HFF-1) and breast (MCF12A) cell lines. […] The homolycorine-type alkaloid 7 was selected for further investigation in MDA-MB-231 cells. In the annexin-V assay, compound 7 increased cell death by apoptosis, which was substantiated, in western blot analyses, by the increased expression of the pro-apoptotic protein Bax, and the decreased expression of the anti-apoptotic protein Bcl-xL. Consistently, it further stimulated mitochondrial reactive oxygen species (ROS) generation. The antiproliferative effect of compound 7 was also associated with G2/M cell cycle arrest, which was supported by an increase in the p21 protein expression levels.
as §4

HFF-1 cells = test: Sulforhodamine B antiproliferative assay, non-tumorigenic fibroblast HFF-1; assay type: cell-based; details: Homo sapiens, 48 h of treatment, read-out: IC50 HFF-1 (E)
Experimental: as §2, §3, §4

## COc1cc2c(cc1O)C(=O)OC1[C@@H](O)C=C3CCN(C)C3[C@]21O (stereo partly drawn) [Compound 7, 2α-10bα-dihydroxy-9-O-demethylhomolycorine]
MDA-MB-231 cells [1]
  mitochondrial ROS production: increased ROS production
MDA-MB-468 cells; Homo sapiens, MDA-MB-468, 48 h, sulforhodamine B assay, 48 h of treatment
  IC50: 16.3 ± 1.3 µM
MDA-MB-468 cells; selectivity index, HFF-1 vs MDA-MB-468
  SI E/B: 0.81
MDA-MB-468 cells; selectivity index, MCF12A vs MDA-MB-468
  SI D/B: 0.34
MDA-MB-231 cells [2]
  cell cycle progression: significant accumulation of cells in the G2/M phase
[3]
  IC50: 0.73 to 16.3 µM
HFF-1 cells
  IC50: 13.3 ± 3.28 µM
